# Tests used:
# [1] = system: Staphylococcus aureus (Sa) ATCC 29213; test: MIC, CLSI broth dilution susceptibility assay; format: cell-based; conditions: for Minimum Inhibitory Concentration (MIC): Staphylococcus aureus ATCC 29213
# Experimental: (§1) The compounds were assayed against Gram-positive bacteria Staphylococcus aureus (Sa), methicillin-resistant Sa (MRSA), Enterococcus faecalis, and Vancomycin-resistant E. faecalis; the Gram-negative bacteria Escherichia coli and Pseudomonas aeruginosa; and the fungi Candida albicans and Amphotericin B-resistant C. albicans.
# (§2) The growth conditions were adapted from the CLSI protocols for broth dilution susceptibility assays. A culture of S. aureus ATCC 29213 was diluted with MHII broth to an inoculum of—5×10^5 CFU/mL. Cultures were grown in 100 μL in round-bottom 96-well plates with increasing concentrations of test or control compound. Plates were gently rocked at 37° C. overnight and then 50 μL of each culture was spread onto TSA plates without antibiotic. The plates were incubated at 37° C. overnight and then examined for bacterial growth. Similarly, an inoculum of C. albicans ATCC 28517 or C. auris ATCC MYA-5001 was prepared in RPMI-1640 with 165 mM MOPS at 0.5×10^3-2.5×10^3 CFU/mL. Cultures were grown in 200 μL in round-bottom 96-well plates with increasing concentrations of test or control compound. Plates were gently rocked at 35° C. overnight and then 50 μL of each culture was spread onto Sabouraud dextrose agar (SDA) plates without compound. The plates were incubated at 35° C. overnight and then examined for fungal growth.
# [2] = system: Escherichia coli ATCC 25922; test: MIC, CLSI broth dilution susceptibility assay; format: cell-based
# Experimental: as §1, §2
# [3] = system: Enterococcus faecalis ATCC 29212; test: MIC, CLSI broth dilution susceptibility assay; format: cell-based; conditions: for Minimum Inhibitory Concentration (MIC): Enterococcus faecalis ATCC 29212
# Experimental: as §1, §2
# [4] = system: Pseudomonas aeruginosa ATCC 27853; test: MIC, CLSI broth dilution susceptibility assay; format: cell-based
# Experimental: as §1, §2
# [5] = system: Candida auris ATCC MYA-5001; test: MIC, CLSI broth dilution susceptibility assay; format: cell-based; conditions: for Minimum Inhibitory Concentration (MIC): Candida auris ATCC MYA-5001
# Experimental: as §1, §2
# [6] = system: Candida albicans ATCC 28517; test: MIC, CLSI broth dilution susceptibility assay; format: cell-based; conditions: for Minimum Inhibitory Concentration (MIC): Candida albicans ATCC 28517
# Experimental: as §1, §2
# [7] = system: Vancomycin-resistant E. faecalis ATCC 51299; test: MIC, CLSI broth dilution susceptibility assay; format: cell-based, Enterococcus faecalis
# Experimental: as §1, §2
# [8] = system: Amphotericin B-resistant C. albicans ATCC 200955; format: cell-based
# Experimental: as §1, §2
# [9] = system: MRSA, methicillin-resistant Sa ATCC 43300; test: MIC, CLSI broth dilution susceptibility assay; format: cell-based, Staphylococcus aureus; conditions: for Minimum Inhibitory Concentration (MIC): MRSA ATCC 43300
# Experimental: as §1, §2
# [10] = system: S. aureus ATCC 29213; test: Bactericidal activity: broth cultures with compound plated onto TSA without antibiotic; format: cell-based, Staphylococcus aureus; conditions: for MIC: Staphylococcus aureus, ATCC29213
# Experimental: as §2
# (§3) After treatment with concentrations of compound 2 at or nearing the MIC, no viable organism could be recovered.
# (§4) FIG. 19-20 show bactericidal and fungicidal activities of compound 2. FIG. 19A-C show the bactericidal activity of compound 2 against S. aureus ATCC 29213. […] FIG. 20A-B show the fungicidal activity of compound 2.
# [11] = system: C. albicans ATCC 28517; test: Fungicidal activity: broth cultures with compound plated onto SDA without compound; format: cell-based, Candida albicans
# Experimental: as §2, §3, §4
# [12] = system: C. auris ATCC MYA-5001; test: as above; format: cell-based, Candida auris
# Experimental: as §2, §3, §4
# [13] = system: Amycolatopsis glycosyltransferase; test: Glycosyltransferase assay (substrate specificity); format: biochemical, Amycolatopsis sp. F10; conditions: PBS, 500 μM UDP-glucose, 100 μM substrate, 30° C., 2 to 30 min; HPLC UV 254 nm or MS
# Experimental: Glycosyltransferase expression vector cloning: An expression vector pET28b-gt was constructed by cloning the glycosyltransferase gene into pET28b (Novagen) with a C-terminal 6-His tag using the NEBuilder HiFi DNA Assembly kit (New England Biolabs). The glycosyltransferase gene was PCR amplified from F10 genomic DNA with primers that appended 5′ and 3′ overhangs homologous to the pET28b multiple cloning site. The linearized pET28b vector was prepared by restriction enzyme digestion with NcoI and XhoI. After cloning and confirmation by Sanger sequencing, pET28b-gt was transformed into E. coli BL21(DE3) for protein expression. The expression vector pET28b-gt-H15A was created from pET28b-gt with site-directed mutagenesis using overlapping primers and the QuikChange II kit.
# Glycosyltransferase recombinant protein purification: An overnight culture of the glycosyltransferase expression strain in Luria-Bertani broth (LB) was used to inoculate 2 L LB with a 1:100 dilution (v/v). The culture was grown at 37° C. to OD600=0.5-0.7 and 0.1 mM isopropyl β-d-1-thiogalactopyranoside (IPTG) was added to induce protein expression for 4 hours. Cells were harvested by centrifugation, suspended in 20 mL phosphate-buffered saline (PBS) and stored at −80° C. For purification, the cells were thawed, lysed (lysozyme, DNase, MgCl2, phenylmethylsulfonyl fluoride (PMSF), and sonication), and cellular debris was removed by centrifugation. The glycosyltransferase was purified from the clarified lysate in two chromatographic steps on an AKTA Pure 25 FPLC. […] The eluted fractions containing the glycosyltransferase were confirmed by SDS-PAGE, pooled, and concentrated and buffer exchanged to remove imidazole in a 10000 Da MW centrigual filter device. The sample was run on a HiLoad Superdex 75 pg 16/600 size exclusion column with 50 mM HEPES pH 6.8/50 mM NaCl/10% glycerol. Protein purity was confirmed by SDS-PAGE. The purified glycosyltransferase was concentrated and flash frozen in aliquots at […]. […]
# [14] = S. aureus ATCC 29213, FIG. 19 bactericidal experiment
# [15] = at or nearing the MIC no viable organism could be recovered
structure (smiles),measurement,setting,value
CC/C=C/C=C/C=C/C(O)CC1(O)OC(CC(O)C(O)C(O)C(O)C(O)C(C)C(O)C(C)C(O)CC(O)CC(O)CC(O)C(C)C(O)C(C)C(O)C(C)C(O)C(CC(C)CC(C)/C=C(C)/C(O)=C2/C(=O)C(C)N(C)C2=O)OC2OC(CO)C(O)C(O)C2O)C(O)C(O)C1O (stereo not shown) [Compound 1],Minimum Inhibitory Concentration (MIC),[1],>128 micrograms/mL
same,Minimum Inhibitory Concentration (MIC),[2],>128 micrograms/mL
same,Minimum Inhibitory Concentration (MIC),[3],>128 micrograms/mL
same,Minimum Inhibitory Concentration (MIC),[4],>128 micrograms/mL
same,Minimum Inhibitory Concentration (MIC),[5],>128 micrograms/mL
same,Minimum Inhibitory Concentration (MIC),[6],>128 micrograms/mL
same,Minimum Inhibitory Concentration (MIC),[7],>128 micrograms/mL
same,Minimum Inhibitory Concentration (MIC),[8],>128 micrograms/mL
same,Minimum Inhibitory Concentration (MIC),[9],>128 micrograms/mL
CC/C=C/C=C/C=C/C(O)CC1(O)OC(CC(O)C(O)C(O)C(O)C(O)C(C)C(O)C(C)C(O)CC(O)CC(O)CC(O)C(C)C(O)C(C)C(O)C(C)C(O)C(O)CC(C)CC(C)/C=C(C)/C(O)=C2/C(=O)C(C)N(C)C2=O)C(O)C(O)C1O (stereo not shown) [Compound 2],Minimum Inhibitory Concentration (MIC),[1],2 micrograms/mL
same,Minimum Inhibitory Concentration (MIC),[2],>128 micrograms/mL
same,Minimum Inhibitory Concentration (MIC),[3],8 micrograms/mL
same,Minimum Inhibitory Concentration (MIC),[4],>128 micrograms/mL
same,Minimum Inhibitory Concentration (MIC),[5],16 micrograms/mL
same,Minimum Inhibitory Concentration (MIC),[6],8 micrograms/mL
same,MIC in the experiment,[10]; [14],2 µg/mL
same,Mode of action against S. aureus (bactericidal),[10]; [15],bactericidal
same,Minimum Inhibitory Concentration (MIC),[7],8 micrograms/mL
same,MIC in the experiment,"[11]; C. albicans ATCC 28517, FIG. 20A fungicidal experiment",8 µg/mL
same,Mode of action against C. albicans (fungicidal),[11]; [15],fungicidal
same,Minimum Inhibitory Concentration (MIC),[8],8 micrograms/mL
same,MIC in the experiment,"[12]; C. auris ATCC MYA-5001, FIG. 20B fungicidal experiment",16 µg/mL
same,Mode of action against C. auris (fungicidal),[12]; [15],fungicidal
same,Glycosyltransferase activity on the substance as substrate,[13],complete conversion
same,Minimum Inhibitory Concentration (MIC),[9],2 micrograms/mL
"C[C@@H]1[C@H](O)[C@@H](C)/C=C/C=C/C=C/C=C/C=C/C=C/C=C/[C@H](O[C@@H]2O[C@H](C)[C@@H](O)[C@H](N)[C@@H]2O)C[C@@H]2O[C@](O)(C[C@@H](O)C[C@@H](O)[C@H](O)CC[C@@H](O)C[C@@H](O)CC(=O)O[C@H]1C)C[C@H](O)[C@H]2C(=O)O [amphotericin B, reference compound]","MIC, antibiotic control","[6]; C. albicans, footnote control",C. albicans: amphotericin B = 2 ug/mL
"O=C(N[C@H](CO)[C@H](O)c1ccc([N+](=O)[O-])cc1)C(Cl)Cl [chloramphenicol, reference compound]",MIC,[10]; [14],8 µg/mL
CC[C@H]1OC(=O)[C@H](C)[C@@H](O[C@H]2C[C@@](C)(OC)[C@@H](O)[C@H](C)O2)[C@H](C)[C@@H](O[C@@H]2O[C@H](C)C[C@H](N(C)C)[C@H]2O)[C@](C)(O)C[C@@H](C)C(=O)[C@H](C)[C@@H](O)[C@]1(C)O [erythromycin],Glycosyltransferase activity on the substance as substrate,[13],no activity
"OC(Cn1cncn1)(Cn1cncn1)c1ccc(F)cc1F [fluconazole, reference compound]","MIC, antibiotic control","[5]; C. auris, footnote control",C. auris: fluconazole = 1 ug/mL
"Cc1onc(-c2ccccc2)c1C(=O)N[C@@H]1C(=O)N2[C@@H]1SC(C)(C)[C@@H]2C(=O)O [oxacillin, reference compound]","MIC, antibiotic control","[1]; S. aureus, footnote control",S. aureus: oxacillin = 0.25-0.5 ug/mL
same,MIC,[10]; [14],2 µg/mL
CC[C@H]1OC(=O)C[C@@H](O)[C@H](C)[C@@H](O[C@@H]2O[C@H](C)[C@@H](O[C@H]3C[C@@](C)(O)[C@@H](O)[C@H](C)O3)[C@H](N(C)C)[C@H]2O)[C@@H](CC=O)C[C@@H](C)C(=O)/C=C/C(C)=C/[C@@H]1CO[C@@H]1O[C@H](C)[C@@H](O)[C@@H](OC)[C@H]1OC [tylosin],Glycosyltransferase activity on the substance as substrate,[13],no activity
"CN[C@H](CC(C)C)C(=O)N[C@H]1C(=O)N[C@@H](CC(N)=O)C(=O)N[C@H]2C(=O)N[C@H]3C(=O)N[C@H](C(=O)N[C@H](C(=O)O)c4cc(O)cc(O)c4-c4cc3ccc4O)[C@H](O)c3ccc(c(Cl)c3)Oc3cc2cc(c3O[C@@H]2O[C@H](CO)[C@@H](O)[C@H](O)[C@H]2O[C@H]2C[C@](C)(N)[C@H](O)[C@H](C)O2)Oc2ccc(cc2Cl)[C@H]1O [vancomycin, reference compound]","MIC, antibiotic control","[3]; E. faecalis, footnote control",E. faecalis: vancomycin = 2 ug/mL
same,"MIC, antibiotic control","[9]; MRSA, footnote control",MRSA: vancomycin = 0.5-1 ug/mL
